From PMC9916658, “Design and Synthesis of New Quinazolin-4-one Derivatives with Negative mGlu7 Receptor Modulation Activity and Antipsychotic-Like Properties” (International Journal of Molecular Sciences, 2023)

Columns and labels:
Assay in all cases: CYP inhibition assay, recombinant enzyme, fluorescence
Format in all cases: in vitro ADME
CYP2B6 = target: T1, CYP2B6 (Homo sapiens, UniProt P20813); details: test concentrations 1.1, 3.3 and 10 μM; read-out: Cytochrome P450 2B6 IC50
T1 construct: purchased BD Biosciences
T1 sequence (P20813 1-491): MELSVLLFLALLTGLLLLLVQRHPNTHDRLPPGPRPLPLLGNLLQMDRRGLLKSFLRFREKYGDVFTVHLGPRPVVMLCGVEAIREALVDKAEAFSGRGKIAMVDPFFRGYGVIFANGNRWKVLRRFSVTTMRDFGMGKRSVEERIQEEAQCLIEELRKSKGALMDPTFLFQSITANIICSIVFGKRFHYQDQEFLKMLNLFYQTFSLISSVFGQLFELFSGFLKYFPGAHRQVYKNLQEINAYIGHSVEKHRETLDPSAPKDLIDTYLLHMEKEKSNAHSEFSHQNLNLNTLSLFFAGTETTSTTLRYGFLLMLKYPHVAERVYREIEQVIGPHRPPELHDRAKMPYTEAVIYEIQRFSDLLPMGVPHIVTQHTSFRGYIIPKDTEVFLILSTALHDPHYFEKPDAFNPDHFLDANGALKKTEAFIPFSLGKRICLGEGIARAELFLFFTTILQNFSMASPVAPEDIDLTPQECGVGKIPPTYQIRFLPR
Description: (§1) CYP inhibition was performed with the recombinant enzymes CYP1A2, CYP2B6, CYP2C9, CYP2C19, CYP2D6, and CYP3A4 obtained from BD Biosciences. Compounds for CYP inhibition testing were prepared as 10 mM stock solutions in DMSO. Isoform-specific substrates were incubated at 37 °C individually with P450 enzymes (Table 5) and a range of test compound concentrations (1.1, 3.3 and 10 μM) in duplicate. Each isoform was tested separately with one reference compound, a known positive control inhibitor. During preincubation, the 96-well black plates were scanned with a fluorescence plate reader to eliminate false results originating from the autofluorescence of the test compounds. At the end of the incubation, product formation was monitored with fluorescence detection. A decrease in the formation of the metabolite compared to the “no inhibition” control samples was used to calculate the IC50 value.

CYP2C19 = target: T2, CYP2C19 (Homo sapiens, UniProt P33261); details: test concentrations 1.1, 3.3 and 10 μM; read-out: Cytochrome P450 2C19 IC50
T2 construct: purchased BD Biosciences
Description: as §1

CYP2D6 = target: T3, CYP2D6 (Homo sapiens, UniProt P10635); details: test concentrations 1.1, 3.3 and 10 μM; read-out: Cytochrome P450 2D6 IC50
T3 construct: purchased BD Biosciences
Description: as §1

CYP1A2 = target: T4, CYP1A2 (Homo sapiens, UniProt P05177); details: test concentrations 1.1, 3.3 and 10 μM; read-out: Cytochrome P450 1A2 IC50
T4 construct: purchased BD Biosciences
T4 sequence (P05177 1-516): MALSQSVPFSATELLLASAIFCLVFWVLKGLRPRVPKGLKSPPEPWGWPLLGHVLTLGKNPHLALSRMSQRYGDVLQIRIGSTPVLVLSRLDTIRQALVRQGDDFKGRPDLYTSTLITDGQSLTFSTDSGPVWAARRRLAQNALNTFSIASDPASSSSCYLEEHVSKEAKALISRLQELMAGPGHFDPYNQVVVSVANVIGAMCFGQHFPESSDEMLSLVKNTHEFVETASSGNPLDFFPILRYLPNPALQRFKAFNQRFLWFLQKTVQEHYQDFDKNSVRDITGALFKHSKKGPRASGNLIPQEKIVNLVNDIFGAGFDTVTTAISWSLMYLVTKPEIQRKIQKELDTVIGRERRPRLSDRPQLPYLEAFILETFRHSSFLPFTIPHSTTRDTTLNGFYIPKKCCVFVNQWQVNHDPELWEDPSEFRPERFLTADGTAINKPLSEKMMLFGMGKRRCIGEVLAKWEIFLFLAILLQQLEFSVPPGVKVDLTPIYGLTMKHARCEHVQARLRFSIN
Description: as §1

T2 sequence (P33261 whole entry): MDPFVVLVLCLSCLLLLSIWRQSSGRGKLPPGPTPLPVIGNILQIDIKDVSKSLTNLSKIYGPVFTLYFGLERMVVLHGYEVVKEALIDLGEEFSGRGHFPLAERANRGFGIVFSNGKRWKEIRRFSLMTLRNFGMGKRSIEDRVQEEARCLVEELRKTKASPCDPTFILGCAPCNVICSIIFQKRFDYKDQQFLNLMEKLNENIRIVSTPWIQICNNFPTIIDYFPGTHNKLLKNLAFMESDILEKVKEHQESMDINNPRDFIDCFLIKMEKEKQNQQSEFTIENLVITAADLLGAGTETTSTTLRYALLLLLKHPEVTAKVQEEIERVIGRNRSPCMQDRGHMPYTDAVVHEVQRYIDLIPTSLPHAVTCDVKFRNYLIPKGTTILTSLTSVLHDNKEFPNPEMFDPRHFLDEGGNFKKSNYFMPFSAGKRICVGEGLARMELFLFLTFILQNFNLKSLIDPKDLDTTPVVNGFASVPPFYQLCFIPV
T3 sequence (P10635 whole entry): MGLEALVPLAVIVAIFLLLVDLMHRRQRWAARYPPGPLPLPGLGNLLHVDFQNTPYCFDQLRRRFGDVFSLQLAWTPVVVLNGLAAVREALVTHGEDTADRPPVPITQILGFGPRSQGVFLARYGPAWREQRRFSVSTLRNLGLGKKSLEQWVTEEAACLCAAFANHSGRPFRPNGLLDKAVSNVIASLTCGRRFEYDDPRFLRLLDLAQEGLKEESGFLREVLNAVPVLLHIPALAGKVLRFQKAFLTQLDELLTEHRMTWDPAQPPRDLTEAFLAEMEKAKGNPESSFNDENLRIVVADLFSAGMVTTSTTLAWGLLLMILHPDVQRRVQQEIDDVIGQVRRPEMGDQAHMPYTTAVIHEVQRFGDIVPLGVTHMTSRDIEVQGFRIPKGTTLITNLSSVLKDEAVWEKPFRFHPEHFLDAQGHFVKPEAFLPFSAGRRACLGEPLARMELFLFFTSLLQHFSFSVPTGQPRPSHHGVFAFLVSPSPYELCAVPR

IC50 (CYP2B6) | IC50 (CYP2C19) | IC50 (CYP2D6) | IC50 (CYP1A2) | SMILES
> 10 µM | 3.3 to 10 µM | > 10 µM | 3.3 to 10 µM | COc1cccc(-c2ccc3nc(-c4ccccc4Cl)n(C)c(=O)c3c2)c1OC [ALX-171, 2-(2-chlorophenyl)-6-(2,3-dimethoxyphenyl)-3-methylquinazolin-4(3H)-one]
> 10 µM | 1.1 to 3.3 µM | > 10 µM | 1.1 to 3.3 µM | Cn1c(-c2ccccc2Cl)nc2ccc(-c3ccccc3)cc2c1=O [ALX-065, 2-(2-chlorophenyl)-3-methyl-6-phenylquinazolin-4(3H)-one]
